Our source for the AC50, EC50 and IC50 values is ChEMBL document CHEMBL1201862, “PubChem BioAssay data set” (2004).

The structures appear in SMILES notation. Active and inactive are the calls of the source.

For orientation: AC50 means the concentration at which the activity in the assay is half-maximal. What is called EC50 is the concentration needed to bring the measured effect to its halfway point. The IC50 is the concentration that gives 50% inhibition.

Experiment [1] can be described thus: HepG2 cell cytotoxicity, dose response, cytotoxicity control, plate reader, cherry-pick, antagonist series (AID 743416). The experiment is classed as functional, cell-based.
The target of experiment [2] is Luciferin 4-monooxygenase (Photinus pyralis, UniProt P08659). The experiment can be described thus: firefly luciferase enzyme inhibitors, dose response, biochemical, luminescence (AID 1891).
Sequence of Luciferin 4-monooxygenase (P08659 whole entry): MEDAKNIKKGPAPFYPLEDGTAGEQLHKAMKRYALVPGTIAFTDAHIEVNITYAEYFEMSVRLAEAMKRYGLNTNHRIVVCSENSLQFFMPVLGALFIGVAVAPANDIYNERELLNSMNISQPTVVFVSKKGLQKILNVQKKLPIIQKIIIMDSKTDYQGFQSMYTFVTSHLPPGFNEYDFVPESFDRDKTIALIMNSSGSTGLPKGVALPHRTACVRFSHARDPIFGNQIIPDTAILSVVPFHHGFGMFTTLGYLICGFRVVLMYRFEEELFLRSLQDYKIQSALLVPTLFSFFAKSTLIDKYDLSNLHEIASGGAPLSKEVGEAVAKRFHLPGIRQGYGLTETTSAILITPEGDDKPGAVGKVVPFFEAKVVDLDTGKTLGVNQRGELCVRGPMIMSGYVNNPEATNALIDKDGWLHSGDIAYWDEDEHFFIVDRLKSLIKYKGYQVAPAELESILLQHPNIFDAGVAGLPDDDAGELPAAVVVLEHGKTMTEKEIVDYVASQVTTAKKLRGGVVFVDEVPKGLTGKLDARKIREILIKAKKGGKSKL
A short description of experiment [3]: Luminescence Cell-Based Dose Confirmation HTS to Identify Inhibitors of Platelet Dense Granule Release. [Related pubchem assays: 1663 (Primary HTS), 1678 (Summary of Project)]. The experiment is classed as functional.
The target of a further experiment is T1, Caspase-3 (Homo sapiens, UniProt P42574).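 Also: Dose-response selectivity test against caspase-3 for candidate inhibitors of sentrin-specific proteases (SENPs).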
T1 sequence (P42574 whole entry): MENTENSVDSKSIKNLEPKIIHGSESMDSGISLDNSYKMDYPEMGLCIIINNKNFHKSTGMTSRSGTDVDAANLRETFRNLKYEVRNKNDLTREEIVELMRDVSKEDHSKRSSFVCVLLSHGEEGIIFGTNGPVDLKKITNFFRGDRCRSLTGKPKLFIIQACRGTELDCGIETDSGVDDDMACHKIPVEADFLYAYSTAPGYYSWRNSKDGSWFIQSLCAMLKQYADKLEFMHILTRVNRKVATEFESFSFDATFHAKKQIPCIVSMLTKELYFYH
The experiment is classed as functional.

Experiment [4] addresses T2, Sentrin-specific protease 7 (Homo sapiens, UniProt Q9BQF6).
T2 sequence (Q9BQF6 whole entry): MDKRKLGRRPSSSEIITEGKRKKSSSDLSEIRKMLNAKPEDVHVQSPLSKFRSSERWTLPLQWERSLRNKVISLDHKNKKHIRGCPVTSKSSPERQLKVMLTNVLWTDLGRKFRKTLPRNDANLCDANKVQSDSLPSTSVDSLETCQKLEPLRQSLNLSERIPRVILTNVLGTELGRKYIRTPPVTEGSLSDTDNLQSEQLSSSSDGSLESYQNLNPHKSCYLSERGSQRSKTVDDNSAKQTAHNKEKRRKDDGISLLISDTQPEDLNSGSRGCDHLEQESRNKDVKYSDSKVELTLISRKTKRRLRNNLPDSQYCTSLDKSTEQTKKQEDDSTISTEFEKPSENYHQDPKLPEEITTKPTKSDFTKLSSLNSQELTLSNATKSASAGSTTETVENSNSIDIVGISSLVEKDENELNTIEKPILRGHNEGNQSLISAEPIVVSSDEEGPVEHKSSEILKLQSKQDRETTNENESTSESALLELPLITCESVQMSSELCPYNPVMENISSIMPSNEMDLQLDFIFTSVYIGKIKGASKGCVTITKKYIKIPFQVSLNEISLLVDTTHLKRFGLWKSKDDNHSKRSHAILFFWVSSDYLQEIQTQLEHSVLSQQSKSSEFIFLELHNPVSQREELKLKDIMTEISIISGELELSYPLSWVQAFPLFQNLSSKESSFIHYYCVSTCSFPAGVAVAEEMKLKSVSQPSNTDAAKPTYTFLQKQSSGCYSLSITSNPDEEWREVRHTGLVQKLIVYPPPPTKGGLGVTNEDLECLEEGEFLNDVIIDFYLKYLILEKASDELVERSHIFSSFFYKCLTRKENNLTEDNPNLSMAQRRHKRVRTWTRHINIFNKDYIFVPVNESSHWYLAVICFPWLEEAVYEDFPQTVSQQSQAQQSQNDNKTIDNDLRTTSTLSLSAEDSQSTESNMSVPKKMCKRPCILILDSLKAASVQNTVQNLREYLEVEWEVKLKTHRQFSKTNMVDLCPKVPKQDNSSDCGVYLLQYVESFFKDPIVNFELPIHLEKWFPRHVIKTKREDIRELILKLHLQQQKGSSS
Type of experiment: functional.

Experiment [5] has as its target T3, Sentrin-specific protease 6 (Homo sapiens, UniProt Q9GZR1).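 Also: Luminescence-based dose-response confirmatory assay of SENP6 inhibition, following up an ultra-high-throughput screen.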
T3 sequence (Q9GZR1 whole entry): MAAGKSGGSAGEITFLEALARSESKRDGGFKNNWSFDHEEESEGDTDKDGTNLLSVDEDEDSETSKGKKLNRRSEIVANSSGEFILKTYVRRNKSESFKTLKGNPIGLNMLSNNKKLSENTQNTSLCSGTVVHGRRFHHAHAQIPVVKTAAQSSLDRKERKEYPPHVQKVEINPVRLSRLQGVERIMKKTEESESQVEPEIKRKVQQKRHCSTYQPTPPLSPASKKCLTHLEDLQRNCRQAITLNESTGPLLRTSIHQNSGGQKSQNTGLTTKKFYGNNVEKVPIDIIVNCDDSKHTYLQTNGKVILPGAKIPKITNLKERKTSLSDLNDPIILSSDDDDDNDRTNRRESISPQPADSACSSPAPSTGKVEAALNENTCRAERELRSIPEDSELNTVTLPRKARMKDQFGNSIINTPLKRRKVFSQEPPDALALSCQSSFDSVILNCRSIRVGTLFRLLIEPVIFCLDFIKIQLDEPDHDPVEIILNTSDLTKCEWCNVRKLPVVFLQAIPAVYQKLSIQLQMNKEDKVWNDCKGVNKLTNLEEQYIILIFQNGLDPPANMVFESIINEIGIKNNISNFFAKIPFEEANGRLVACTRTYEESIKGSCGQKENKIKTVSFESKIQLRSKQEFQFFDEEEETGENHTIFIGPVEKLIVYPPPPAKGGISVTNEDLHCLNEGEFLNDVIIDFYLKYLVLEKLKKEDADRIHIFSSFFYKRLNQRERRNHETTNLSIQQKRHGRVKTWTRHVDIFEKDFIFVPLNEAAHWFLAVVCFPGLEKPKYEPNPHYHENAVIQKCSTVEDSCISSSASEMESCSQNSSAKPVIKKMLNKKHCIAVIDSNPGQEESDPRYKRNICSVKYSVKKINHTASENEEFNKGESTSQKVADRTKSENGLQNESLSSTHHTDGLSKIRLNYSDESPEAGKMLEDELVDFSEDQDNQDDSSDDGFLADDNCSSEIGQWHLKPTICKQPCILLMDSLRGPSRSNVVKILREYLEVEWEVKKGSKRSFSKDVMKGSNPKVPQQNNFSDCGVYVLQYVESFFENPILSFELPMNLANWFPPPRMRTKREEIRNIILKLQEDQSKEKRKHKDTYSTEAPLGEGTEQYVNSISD
Type of experiment: functional.

Experiment [6] addresses T4, Sentrin-specific protease 8 (Homo sapiens, UniProt Q96LD8).
T4 sequence (Q96LD8 whole entry): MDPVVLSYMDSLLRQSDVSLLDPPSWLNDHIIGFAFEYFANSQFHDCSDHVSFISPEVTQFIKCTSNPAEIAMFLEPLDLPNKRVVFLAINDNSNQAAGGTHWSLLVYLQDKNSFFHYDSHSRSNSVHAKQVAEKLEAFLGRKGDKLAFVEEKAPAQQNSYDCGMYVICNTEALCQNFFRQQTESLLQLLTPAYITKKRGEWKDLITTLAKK
Type of experiment: functional.

The next experiment has as its target Beta-galactosidase (Escherichia coli, UniProt Q8VNN2). The experiment can be described thus: Dose response counterscreen for EBI2 assay utilizing the enzyme, b-galactosidase. The experiment is classed as functional. On the technique in general: A counterscreen serves to expose hits that act by an unwanted route or on another target.
Experiment [7] has as its target T5, Fatty acid synthase (Homo sapiens, UniProt P49327). The experiment is described as follows: FAS thioesterase domain inhibitors, dose response, biochemical, endpoint fluorescence intensity, uHTS hits (AID 624327).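 Also: fluorescence from hydrolysis of an O-methyl fluorescein acyl ester substrate by the enzyme.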 Type of experiment: functional.
The target in experiment [8] is T5, Fatty acid synthase. The experiment is described as follows: FAS thioesterase domain inhibitors, dose response, biochemical, kinetic fluorescence intensity (AID 624326).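 Also: rate of fluorescence rise from hydrolysis of a fluorogenic O-methyl fluorescein ester substrate.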 Type of experiment: functional.
The next experiment is described as follows: cells. The experiment is classed as functional.
For experiment [9], the target named is T6, Heat shock factor protein 1 (Mus musculus, UniProt P38532).
T6 sequence (P38532 whole entry): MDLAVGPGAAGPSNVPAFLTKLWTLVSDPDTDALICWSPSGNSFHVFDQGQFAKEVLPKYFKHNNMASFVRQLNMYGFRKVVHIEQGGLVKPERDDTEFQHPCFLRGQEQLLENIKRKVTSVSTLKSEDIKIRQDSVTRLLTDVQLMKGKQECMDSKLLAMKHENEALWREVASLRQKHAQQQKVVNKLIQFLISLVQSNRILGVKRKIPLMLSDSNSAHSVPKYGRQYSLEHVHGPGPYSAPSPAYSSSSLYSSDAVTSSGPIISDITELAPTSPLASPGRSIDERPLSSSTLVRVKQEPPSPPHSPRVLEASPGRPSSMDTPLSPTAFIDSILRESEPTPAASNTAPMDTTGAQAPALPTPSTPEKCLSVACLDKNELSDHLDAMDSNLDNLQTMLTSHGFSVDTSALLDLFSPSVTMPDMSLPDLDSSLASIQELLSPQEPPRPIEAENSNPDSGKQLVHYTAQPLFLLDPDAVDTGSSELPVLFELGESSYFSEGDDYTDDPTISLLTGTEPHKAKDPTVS
The experiment can be described thus: inhibition of MG132-induced HSE-luciferase signal, confirmation, cell-based, NIH3T3, luminescence, dose retest (AID 2382).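 Also: NIH3T3 fibroblasts with HSF1-driven luciferase reporter stressed by proteasome inhibitor MG132; luminescence from HSF1-driven luciferase expression after 8 hours of MG132 stress.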 Type of experiment: functional.

Another experiment relates to HEK293. The experiment is described as follows: inhibitors of LMP1-driven NF-kB reporter, dose response, cell-based, HEK293, luciferase, cherry-pick (AID 588343). Type of experiment: functional. To be noted: Homo sapiens.
For another experiment, the target named is T7, Protein skinhead-1 (Caenorhabditis elegans, UniProt P34707).
T7 sequence (P34707 whole entry): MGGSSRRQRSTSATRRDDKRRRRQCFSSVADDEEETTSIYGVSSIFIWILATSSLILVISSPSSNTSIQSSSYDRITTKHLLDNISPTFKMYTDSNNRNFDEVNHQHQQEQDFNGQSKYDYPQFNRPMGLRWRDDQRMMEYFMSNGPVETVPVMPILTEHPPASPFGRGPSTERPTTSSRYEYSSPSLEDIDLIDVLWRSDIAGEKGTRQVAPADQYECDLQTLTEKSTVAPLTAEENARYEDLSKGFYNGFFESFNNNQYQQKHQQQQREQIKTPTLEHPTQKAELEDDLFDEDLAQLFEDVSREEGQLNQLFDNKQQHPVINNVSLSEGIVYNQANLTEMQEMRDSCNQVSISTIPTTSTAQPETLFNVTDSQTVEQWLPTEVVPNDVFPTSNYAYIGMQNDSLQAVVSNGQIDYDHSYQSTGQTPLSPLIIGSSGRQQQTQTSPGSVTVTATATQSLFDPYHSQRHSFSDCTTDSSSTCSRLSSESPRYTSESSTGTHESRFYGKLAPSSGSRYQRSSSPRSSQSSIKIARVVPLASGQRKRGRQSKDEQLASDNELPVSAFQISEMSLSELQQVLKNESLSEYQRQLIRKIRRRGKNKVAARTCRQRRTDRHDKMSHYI
Type of experiment: functional.

Sequence of Beta-galactosidase (Q8VNN2 whole entry, the tested form may be a part): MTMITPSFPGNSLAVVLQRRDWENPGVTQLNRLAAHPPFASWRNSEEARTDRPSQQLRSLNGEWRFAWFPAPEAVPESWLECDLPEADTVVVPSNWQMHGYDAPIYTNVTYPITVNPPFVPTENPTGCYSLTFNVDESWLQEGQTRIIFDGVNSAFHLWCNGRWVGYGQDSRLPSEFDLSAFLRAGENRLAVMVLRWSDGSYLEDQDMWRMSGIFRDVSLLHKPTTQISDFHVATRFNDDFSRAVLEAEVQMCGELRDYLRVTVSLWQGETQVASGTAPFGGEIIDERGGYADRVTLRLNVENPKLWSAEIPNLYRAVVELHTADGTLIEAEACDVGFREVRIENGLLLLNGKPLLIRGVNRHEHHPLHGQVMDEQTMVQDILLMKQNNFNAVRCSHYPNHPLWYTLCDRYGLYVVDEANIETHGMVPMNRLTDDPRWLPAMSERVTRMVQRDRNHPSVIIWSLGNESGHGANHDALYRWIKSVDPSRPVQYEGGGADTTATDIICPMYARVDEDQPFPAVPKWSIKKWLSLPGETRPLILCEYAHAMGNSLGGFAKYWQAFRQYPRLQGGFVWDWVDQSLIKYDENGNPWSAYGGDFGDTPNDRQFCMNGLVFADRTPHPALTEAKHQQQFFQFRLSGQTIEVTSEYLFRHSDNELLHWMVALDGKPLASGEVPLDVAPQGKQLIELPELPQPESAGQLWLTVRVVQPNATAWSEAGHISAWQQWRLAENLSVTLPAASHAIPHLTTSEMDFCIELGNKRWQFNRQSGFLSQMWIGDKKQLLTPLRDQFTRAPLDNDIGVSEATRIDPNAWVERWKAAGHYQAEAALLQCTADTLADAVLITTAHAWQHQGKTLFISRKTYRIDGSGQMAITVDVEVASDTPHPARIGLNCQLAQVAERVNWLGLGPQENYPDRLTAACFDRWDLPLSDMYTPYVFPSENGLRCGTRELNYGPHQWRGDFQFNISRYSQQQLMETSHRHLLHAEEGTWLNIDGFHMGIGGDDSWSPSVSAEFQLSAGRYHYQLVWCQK
T5 sequence (P49327 whole entry, the tested form may be a part): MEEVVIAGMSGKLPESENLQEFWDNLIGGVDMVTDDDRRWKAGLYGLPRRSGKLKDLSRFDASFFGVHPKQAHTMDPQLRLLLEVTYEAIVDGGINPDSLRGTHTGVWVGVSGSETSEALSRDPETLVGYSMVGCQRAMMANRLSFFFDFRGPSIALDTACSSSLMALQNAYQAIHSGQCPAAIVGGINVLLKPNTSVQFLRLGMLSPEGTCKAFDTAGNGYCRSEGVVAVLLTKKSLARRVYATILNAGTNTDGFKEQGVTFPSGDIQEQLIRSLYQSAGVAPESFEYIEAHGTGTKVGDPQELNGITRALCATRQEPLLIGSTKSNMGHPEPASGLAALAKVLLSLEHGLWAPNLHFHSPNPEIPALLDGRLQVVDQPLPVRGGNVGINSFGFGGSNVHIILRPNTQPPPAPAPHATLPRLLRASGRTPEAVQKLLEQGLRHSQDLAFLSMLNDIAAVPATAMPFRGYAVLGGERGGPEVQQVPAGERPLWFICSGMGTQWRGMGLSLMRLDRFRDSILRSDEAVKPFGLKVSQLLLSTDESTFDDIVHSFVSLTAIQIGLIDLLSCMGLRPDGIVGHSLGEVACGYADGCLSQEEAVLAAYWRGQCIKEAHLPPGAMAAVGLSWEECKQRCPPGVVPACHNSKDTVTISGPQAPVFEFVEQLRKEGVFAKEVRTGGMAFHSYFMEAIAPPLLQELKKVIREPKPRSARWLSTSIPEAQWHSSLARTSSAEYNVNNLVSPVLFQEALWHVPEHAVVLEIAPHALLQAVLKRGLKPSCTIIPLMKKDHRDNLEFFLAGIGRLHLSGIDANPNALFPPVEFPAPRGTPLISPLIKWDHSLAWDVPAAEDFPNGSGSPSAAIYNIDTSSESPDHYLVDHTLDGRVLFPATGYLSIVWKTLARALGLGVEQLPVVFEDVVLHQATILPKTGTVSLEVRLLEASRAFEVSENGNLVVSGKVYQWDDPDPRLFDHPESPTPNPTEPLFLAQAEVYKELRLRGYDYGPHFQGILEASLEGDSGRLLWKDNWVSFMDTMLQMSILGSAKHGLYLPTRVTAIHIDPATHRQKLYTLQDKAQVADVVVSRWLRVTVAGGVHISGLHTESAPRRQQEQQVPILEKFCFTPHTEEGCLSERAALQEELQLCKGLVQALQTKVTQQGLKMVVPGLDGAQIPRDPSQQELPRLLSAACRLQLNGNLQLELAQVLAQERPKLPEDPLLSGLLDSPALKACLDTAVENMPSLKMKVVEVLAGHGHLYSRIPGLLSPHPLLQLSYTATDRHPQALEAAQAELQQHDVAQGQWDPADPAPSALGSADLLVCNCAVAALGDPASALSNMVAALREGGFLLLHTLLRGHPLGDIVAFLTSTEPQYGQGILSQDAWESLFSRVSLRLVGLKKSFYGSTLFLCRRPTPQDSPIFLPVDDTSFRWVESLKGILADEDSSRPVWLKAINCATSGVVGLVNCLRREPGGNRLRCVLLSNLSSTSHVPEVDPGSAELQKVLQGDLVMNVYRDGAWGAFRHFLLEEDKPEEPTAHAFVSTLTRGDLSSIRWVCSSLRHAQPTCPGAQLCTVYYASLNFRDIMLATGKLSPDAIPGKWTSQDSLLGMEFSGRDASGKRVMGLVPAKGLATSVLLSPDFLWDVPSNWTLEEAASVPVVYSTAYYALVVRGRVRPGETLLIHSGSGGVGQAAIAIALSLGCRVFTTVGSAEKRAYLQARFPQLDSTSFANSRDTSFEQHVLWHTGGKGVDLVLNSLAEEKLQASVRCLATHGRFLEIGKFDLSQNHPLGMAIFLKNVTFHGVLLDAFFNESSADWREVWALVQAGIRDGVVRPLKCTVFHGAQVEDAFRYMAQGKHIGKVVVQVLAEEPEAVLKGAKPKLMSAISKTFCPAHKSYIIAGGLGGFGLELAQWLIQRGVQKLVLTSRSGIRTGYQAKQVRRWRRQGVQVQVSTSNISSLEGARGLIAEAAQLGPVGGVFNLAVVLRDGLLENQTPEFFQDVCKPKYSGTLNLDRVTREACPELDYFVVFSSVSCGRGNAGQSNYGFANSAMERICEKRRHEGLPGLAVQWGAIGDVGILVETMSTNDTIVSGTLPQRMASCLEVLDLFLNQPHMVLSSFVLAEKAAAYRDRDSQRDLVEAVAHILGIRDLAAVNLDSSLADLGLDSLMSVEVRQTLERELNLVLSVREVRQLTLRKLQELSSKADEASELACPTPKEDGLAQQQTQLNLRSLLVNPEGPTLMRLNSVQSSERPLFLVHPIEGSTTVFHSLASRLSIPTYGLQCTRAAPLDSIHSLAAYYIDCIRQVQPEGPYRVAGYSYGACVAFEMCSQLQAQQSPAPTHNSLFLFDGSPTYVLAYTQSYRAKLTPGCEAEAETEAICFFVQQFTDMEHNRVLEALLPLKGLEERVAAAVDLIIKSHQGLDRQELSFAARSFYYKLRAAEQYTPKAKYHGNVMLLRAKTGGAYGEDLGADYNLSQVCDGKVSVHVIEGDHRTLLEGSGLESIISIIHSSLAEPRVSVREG

With `Cc1ccc(CNS(=O)(=O)c2ccc3c(c2)CCN3C(=O)CCCC(=O)O)cc1`, the AC50 in [1] was > 52 µM (inactive).
As for `Cc1ccc(C)c(-c2nnc(NC(=O)CS(=O)(=O)c3ccccc3)o2)c1`, the EC50 in experiment [2] and in experiment [3] was > 112 µM (not active) throughout.
With `COc1ccc(COc2ccc3c(C)cc(=O)oc3c2)cc1`, the half-inhibitory concentration (IC50) at Caspase-3 was 20 µM (active); in [4] it was 9.04 µM (active); in [5], 21.6 µM (active); in [6], 32.3 µM (active).
Consider `COc1ccc(NC(=O)c2sc(SCc3ccccc3)nc2N)cc1`, for which the IC50 at Beta-galactosidase is > 80 µM (inactive).
As to `Cc1[nH]c2nc(SCC(=O)c3ccccc3)nc-2cc1Br`, the EC50 in experiment [2] and in [3] was > 112 µM (not active) throughout.
For the compound `C[C@@H]1CN([C@H](C)CO)S(=O)(=O)c2ccc(C#Cc3ccccc3F)cc2O[C@@H]1CN(C)C(=O)Cc1ccccc1`, the half-inhibitory concentration (IC50) was 3.71 µM (active) on Fatty acid synthase [7], 3.79 µM (active) on Fatty acid synthase [8] and > 80 µM (inactive) on Beta-galactosidase.
As to `COc1cc(/C=C(\C#N)C(=O)Nc2ccc3ccccc3c2)c([N+](=O)[O-])cc1OC`, on Beta-galactosidase, the IC50 is > 80 µM (inactive).
Consider `CCOc1ccc(/C=N/NC(=O)c2ccc(Cn3cc(Br)cn3)o2)cc1`, for which the half-maximal inhibitory concentration (IC50) is 35.4 µM (active) on Caspase-3, 13.2 µM (active) in [4], 52.7 µM (active) in experiment [5] and 56.5 µM (active) in experiment [6].
Regarding `O=C1/C(=C\c2ccc(O)cc2)SC(=S)N1Cc1ccccc1`, the IC50 on Caspase-3 was 41 µM (active); in experiment [4] it was 16 µM (active); in experiment [5] it was 8 µM (active); in experiment [6] it was 9.59 µM (active).
Take `CN1/C(=C\C(=O)COC(=O)c2ccc([N+](=O)[O-])o2)C(C)(C)c2ccccc21`: the EC50 in experiment [2] and in [3] was > 112 µM (not active) in each case. In addition, the half-maximal inhibitory concentration (IC50) in “cells” was 1.22 µM (active).
As to `COc1cccc(NC(=O)Cn2c3ccc(F)cc3c3nc4n(c(=O)c32)CCCS4)c1`, the IC50 on Beta-galactosidase was > 80 µM (inactive).
On the same count and under the same terms, the same measure for `O=C(c1ccccc1)C1CCN(C(=O)c2ccc(Cl)cc2)CC1`: > 80 µM (inactive).
Consider `CC(=O)Oc1ccc(/C=C/c2nc3ccccc3c(=O)o2)cc1`, for which the EC50 in experiment [2] was 0.359 µM (active); in experiment [3], 0.333 µM (active).
On to `CC(C)(C)CNC(=O)c1cccc2c1C(=O)c1ccc(N3CCCC3)cc1S2(=O)=O`, for which the IC50 on Beta-galactosidase is > 80 µM (inactive).
On to `O=C(/C=C/Nc1ccc(F)cc1Br)c1ccccc1`, for which the EC50 in experiment [9] is < 0.16 µM (active); in experiment [2], 0.283 µM (active); in experiment [3], 3.37 µM (active). Moreover, the AC50 in the experiment with HEK293 is 1.38 µM (active). On Protein skinhead-1, the IC50 is > 100 µM (inactive).
With `O=C(CCCN1C(=O)/C(=C/c2cccc(Br)c2)SC1=S)N1CCOCC1`, the IC50 is > 100 µM (inactive) at Caspase-3, 45.6 µM (active) in experiment [4], 79.6 µM (active) in experiment [5] and 78.1 µM (active) in experiment [6].
